Data as given in patent US20230355571A1, “METHOD FOR TREATING VIRAL AND BACTERIAL INFECTION THROUGH INHALATION THERAPY” (priority 2020, published 2023).
Values after ≈ are worked out from the molar mass of the structure shown. Where two headings read alike, the source gives them in different places.

Columns and labels:
NCI-H358 cells = conditions: cited from earlier work
[1] = system: human lung carcinoma (A549) cell line; conditions: cited from earlier work
E. coli (MTCC 732) = conditions: cited from earlier work
[2] = cited from earlier work
human whole blood = conditions: 102 μg/mL; cited from earlier work
K. pneumoniae = conditions: cited from earlier work
S. aureus = conditions: cited from earlier work
[3] = for Concentration in Epithelial Lining Fluid: single 2 mL dose, 25 mL ELF, 100 percent retained
CB2 receptor = CB2 receptor (Homo sapiens, UniProt P34972); conditions: unit inferred; read-out: Ki, CB2 receptor binding; cited from earlier work
DENV-2 (Dengue Virus 2) = conditions: cited from earlier work
P. aeruginosa = conditions: cited from earlier work
[4] = system: Herpes simplex virus type 1 (HSV-1); conditions: cited from earlier work
mice [5] = assay: NOAEL, oral, mice; conditions: for factor NOAEL over daily inhaled dose: 2 mL/dose 4 times per day of Table A2 composition; for NOAEL for a 62 kg adult human: extrapolated from mouse NOAEL
human TRPM8 (hTRPM8) = human TRPM8 (hTRPM8) (Homo sapiens, UniProt Q7Z2W7); conditions: cited from earlier work
lymphocytes = conditions: cited from earlier work
mice [6] = conditions: oral, mice, 28-d; cited from earlier work
blood monocytes = conditions: cited from earlier work
[7] = system: patients with steroid-dependent bronchial asthma; conditions: cited from earlier work
hTRPA1 = hTRPA1 (Homo sapiens, UniProt O75762); conditions: cited from earlier work
TRPV1 = TRPV1 (Homo sapiens, UniProt Q8NER1); conditions: cited from earlier work
[8] = system: superoxide, super oxide dismutase, hydrogen peroxide, 8-isoprostanes; conditions: cited from earlier work
hTRPV2 = hTRPV2 (Homo sapiens, UniProt Q9Y5S1); conditions: cited from earlier work
avian coronavirus (IBV) = conditions: cited from earlier work
[9] = system: patients with reversible obstructive ventilatory disorders; conditions: cited from earlier work
monocytes = conditions: cited from earlier work

Chain of hTRPA1 (O75762 whole entry): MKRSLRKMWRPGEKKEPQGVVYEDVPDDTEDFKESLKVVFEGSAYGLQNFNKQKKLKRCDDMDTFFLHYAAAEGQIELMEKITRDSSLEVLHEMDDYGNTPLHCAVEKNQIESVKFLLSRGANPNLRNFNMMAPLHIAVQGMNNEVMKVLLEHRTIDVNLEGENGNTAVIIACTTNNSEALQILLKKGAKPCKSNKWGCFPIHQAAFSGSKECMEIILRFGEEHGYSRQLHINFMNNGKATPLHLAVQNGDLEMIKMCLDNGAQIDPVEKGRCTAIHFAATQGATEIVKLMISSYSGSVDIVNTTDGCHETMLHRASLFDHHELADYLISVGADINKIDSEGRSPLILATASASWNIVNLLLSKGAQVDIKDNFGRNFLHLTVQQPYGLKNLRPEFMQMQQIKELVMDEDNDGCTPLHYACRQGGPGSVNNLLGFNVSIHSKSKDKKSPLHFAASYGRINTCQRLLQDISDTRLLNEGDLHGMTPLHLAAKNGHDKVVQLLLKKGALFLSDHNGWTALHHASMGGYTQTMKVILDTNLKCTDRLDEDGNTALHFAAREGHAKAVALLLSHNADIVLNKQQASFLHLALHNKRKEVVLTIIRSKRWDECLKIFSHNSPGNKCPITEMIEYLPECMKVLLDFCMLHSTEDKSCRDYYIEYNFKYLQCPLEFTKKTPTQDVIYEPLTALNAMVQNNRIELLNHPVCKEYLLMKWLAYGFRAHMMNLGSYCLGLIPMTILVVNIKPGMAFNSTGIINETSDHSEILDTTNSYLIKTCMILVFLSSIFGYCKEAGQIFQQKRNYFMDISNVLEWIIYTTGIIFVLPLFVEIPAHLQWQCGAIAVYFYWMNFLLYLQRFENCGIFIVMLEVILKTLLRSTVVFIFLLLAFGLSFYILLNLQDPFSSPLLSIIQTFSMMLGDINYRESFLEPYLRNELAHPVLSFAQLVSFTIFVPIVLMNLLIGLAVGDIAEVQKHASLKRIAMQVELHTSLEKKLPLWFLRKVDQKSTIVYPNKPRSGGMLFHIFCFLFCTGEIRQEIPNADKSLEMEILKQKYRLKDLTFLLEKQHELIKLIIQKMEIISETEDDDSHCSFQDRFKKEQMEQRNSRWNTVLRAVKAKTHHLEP
Chain of CB2 receptor (P34972 whole entry): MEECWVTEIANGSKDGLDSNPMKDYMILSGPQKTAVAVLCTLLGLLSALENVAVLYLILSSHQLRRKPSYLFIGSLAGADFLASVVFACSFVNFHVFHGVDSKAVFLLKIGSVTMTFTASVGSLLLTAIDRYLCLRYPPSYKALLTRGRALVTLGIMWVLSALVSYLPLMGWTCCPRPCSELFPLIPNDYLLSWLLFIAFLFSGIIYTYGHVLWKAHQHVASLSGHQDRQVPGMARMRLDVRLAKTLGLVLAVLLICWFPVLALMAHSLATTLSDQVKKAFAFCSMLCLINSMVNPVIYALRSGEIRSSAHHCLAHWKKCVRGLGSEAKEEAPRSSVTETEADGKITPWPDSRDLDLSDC
Chain of human TRPM8 (hTRPM8) (Q7Z2W7 whole entry): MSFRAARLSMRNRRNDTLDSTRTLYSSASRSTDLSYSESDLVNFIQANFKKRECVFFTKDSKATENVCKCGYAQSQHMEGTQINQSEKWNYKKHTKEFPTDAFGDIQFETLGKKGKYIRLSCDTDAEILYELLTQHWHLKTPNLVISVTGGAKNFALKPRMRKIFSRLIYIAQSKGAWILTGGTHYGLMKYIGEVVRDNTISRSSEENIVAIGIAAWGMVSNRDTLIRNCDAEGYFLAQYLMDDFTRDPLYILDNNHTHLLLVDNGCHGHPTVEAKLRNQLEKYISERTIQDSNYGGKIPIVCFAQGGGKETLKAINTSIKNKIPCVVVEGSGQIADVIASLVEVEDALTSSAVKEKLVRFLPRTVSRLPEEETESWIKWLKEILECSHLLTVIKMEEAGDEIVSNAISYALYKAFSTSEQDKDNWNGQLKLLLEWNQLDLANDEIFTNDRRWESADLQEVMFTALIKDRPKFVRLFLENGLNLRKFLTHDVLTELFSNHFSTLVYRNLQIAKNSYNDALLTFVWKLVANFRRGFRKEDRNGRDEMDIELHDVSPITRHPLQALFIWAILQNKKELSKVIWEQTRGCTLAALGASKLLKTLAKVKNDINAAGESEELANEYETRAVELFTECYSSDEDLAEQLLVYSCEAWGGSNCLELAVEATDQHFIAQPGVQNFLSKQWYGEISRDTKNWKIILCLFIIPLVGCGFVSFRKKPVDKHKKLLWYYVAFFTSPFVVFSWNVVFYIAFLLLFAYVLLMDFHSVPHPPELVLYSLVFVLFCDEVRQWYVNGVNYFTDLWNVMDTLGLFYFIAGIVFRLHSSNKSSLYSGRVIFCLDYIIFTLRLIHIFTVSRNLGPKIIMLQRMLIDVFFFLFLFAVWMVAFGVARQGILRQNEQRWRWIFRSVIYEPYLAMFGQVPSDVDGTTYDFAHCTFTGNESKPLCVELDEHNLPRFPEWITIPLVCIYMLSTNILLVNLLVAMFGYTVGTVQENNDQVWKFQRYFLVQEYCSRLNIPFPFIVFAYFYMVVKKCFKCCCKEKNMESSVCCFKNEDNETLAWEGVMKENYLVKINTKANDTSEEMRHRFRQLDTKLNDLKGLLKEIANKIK
Chain of TRPV1 (Q8NER1 whole entry): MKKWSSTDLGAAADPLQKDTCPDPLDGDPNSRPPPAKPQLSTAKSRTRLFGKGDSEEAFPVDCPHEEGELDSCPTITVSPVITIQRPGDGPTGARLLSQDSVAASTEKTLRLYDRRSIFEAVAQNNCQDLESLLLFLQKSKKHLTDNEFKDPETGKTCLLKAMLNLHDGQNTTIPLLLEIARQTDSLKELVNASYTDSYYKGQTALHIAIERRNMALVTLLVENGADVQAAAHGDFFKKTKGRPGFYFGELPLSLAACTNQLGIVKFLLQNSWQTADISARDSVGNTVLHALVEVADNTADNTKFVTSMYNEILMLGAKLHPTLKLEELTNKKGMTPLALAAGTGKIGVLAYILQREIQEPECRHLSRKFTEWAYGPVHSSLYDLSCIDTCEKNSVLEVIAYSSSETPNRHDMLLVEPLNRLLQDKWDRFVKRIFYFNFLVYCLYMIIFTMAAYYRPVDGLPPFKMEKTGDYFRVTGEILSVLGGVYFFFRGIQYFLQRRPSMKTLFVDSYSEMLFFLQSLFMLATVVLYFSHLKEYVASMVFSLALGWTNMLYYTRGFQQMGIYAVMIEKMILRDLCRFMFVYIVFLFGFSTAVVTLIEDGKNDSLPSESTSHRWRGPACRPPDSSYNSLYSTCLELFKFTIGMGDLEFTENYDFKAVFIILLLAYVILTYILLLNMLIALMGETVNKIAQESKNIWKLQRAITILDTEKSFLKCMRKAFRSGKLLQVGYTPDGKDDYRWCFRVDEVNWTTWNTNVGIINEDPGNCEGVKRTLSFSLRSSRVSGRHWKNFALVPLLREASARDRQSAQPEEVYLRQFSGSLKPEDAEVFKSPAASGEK
Chain of hTRPV2 (Q9Y5S1 whole entry): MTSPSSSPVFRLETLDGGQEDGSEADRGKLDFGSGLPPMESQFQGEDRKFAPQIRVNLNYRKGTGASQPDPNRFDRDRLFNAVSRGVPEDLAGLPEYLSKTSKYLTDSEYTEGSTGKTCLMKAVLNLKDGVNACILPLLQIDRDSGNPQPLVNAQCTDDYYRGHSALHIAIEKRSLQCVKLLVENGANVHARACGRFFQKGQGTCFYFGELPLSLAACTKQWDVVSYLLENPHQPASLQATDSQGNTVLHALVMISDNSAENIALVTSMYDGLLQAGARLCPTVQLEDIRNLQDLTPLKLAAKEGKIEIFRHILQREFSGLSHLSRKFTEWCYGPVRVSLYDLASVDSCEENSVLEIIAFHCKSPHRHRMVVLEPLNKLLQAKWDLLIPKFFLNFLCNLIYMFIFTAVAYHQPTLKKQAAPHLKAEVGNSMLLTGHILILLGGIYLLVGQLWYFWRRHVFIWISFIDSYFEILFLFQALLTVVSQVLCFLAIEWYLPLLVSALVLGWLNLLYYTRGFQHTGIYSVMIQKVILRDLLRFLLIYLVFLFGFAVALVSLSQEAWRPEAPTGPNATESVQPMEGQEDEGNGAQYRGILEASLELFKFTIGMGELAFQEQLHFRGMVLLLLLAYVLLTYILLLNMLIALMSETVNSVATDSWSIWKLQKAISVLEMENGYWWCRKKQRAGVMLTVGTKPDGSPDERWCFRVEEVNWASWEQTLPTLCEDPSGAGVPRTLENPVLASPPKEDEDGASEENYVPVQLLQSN

## C=C1CC/C=C(\C)CC[C@@H]2[C@@H]1CC2(C)C [β-caryophyllene]
NCI-H358 cells
  cytotoxic IC50: 31.19 ± 2.01 µg/mL
[1]
  cytotoxic IC50: 28.18 ± 1.96 µg/mL
E. coli (MTCC 732)
  Minimum Inhibitory Concentration (MIC): 9.0 ± 2.2 µM
[2]; in vivo
  LD50: > 5,000 mg/kg
Human whole blood
  LPS-stimulated IL-1β and TNF-α expression: inhibits
K. pneumoniae
  MIC: 14 µM (≈ 2.86 µg/mL)
S. aureus
  MIC: 3 µM (≈ 0.613 µg/mL)
[3]; Table A2 Preferred Base Viral Nebulizer Liquid
  Concentration in Epithelial Lining Fluid: 600 µg/mL
[3]; Table A3 Preferred Viral Respiratory Challenged Nebulizer Liquid
  Concentration in Epithelial Lining Fluid: 970 µg/mL
[3]; Table A4 Preferred Bacterial Pneumonia Nebulizer Liquid
  Concentration in Epithelial Lining Fluid: 1450 µg/mL
[3]; Table A6 Preferred Base Nebulizer Liquid with Amino Acids
  Concentration in Epithelial Lining Fluid: 1450 µg/mL
CB2 receptor
  Ki: 0.155 µM
DENV-2 (Dengue Virus 2); DENV-2, non-cytostatic
  selectivity index: 71.1
DENV-2 (Dengue Virus 2)
  IC50: 22.5 µM
  IC50, DENV-2: 4.6 µg/mL (≈ 22.5 µM)
P. aeruginosa
  MIC: 7 µM (≈ 1.43 µg/mL)
[4]
  IC50: 0.25 µM
Mice [5]
  factor NOAEL over daily inhaled dose: 868 times
  NOAEL for a 62 kg adult human: 43,400 mg per day

## CC12CCC(CC1)C(C)(C)O2 [1,8-cineole]
Human TRPM8 (hTRPM8)
  activation of hTRPM8: activates
lymphocytes; 0.15 μg/ml
  inhibition of IL-1β production by lymphocytes: 36%
  inhibition of TNF-α production by lymphocytes: 16%
lymphocytes; 1.5 μg/mL
  inhibition of IL-4 production in lymphocytes: 70%
  inhibition of IL-5 production in lymphocytes: 65%
  inhibition of TNFα production in lymphocytes: 92%
  inhibition of cytokine production in lymphocytes, second value (cytokine not named): 84%
Mice [6]
  NOAEL: 562.5 mg/kg
Blood monocytes; day 4, healthy volunteers
  production of LTB4 from monocytes ex vivo: −57.9%
  production of PGE2 from monocytes ex vivo: −42.7%
Blood monocytes; day 4, patients with bronchial asthma, 200 mg 3 times/day
  production of LTB4 from monocytes ex vivo: −40.3%
Blood monocytes; day 4, patients with bronchial asthma
  production of PGE2 from monocytes ex vivo: −31.3%
[2]; in vivo
  LD50: 2,480 mg/kg
[2]; oral, rat
  LD50: 2,480 mg/kg
[7]; 200 mg 3 times per day orally, 12 weeks, placebo 0.91 mg
  mean reduction in daily prednisolone dosage: 3.75 mg
[7]; 200 mg 3 times per day orally, 12 weeks, placebo 7%
  reductions in daily prednisolone dosage tolerated: 36%
[7]; 1,8-cineole group, placebo four out of 16
  patients achieving a reduction of oral steroids: Twelve of 16
hTRPA1
  activation of hTRPA1: did not activate
TRPV1
  activation of hTRPV1: did not activate
[3]; human
  estimated concentration in the epithelial lining fluid of the lungs: 614 µg/mL
[8]; 10^−5 M
  LPS-stimulated 8-isoprostanes: −84%
[8]; 10^−6 M
  LPS-stimulated 8-isoprostanes: −42%
hTRPV2
  activation of hTRPV2: did not activate
Avian coronavirus (IBV)
  IC50: 610 µM
[9]; treatment duration eight weeks
  improvement of airway resistance: −21%
[9]; treatment duration one week
  improvement of airway resistance: −23%
monocytes; 0.15 μg/ml
  inhibition of IL-1β production by monocytes: 61%
  inhibition of TNFα production by monocytes: 77%
monocytes; 1.5 μg/mL
  inhibition of IL-1β production in monocytes: 84%
  inhibition of IL-6 production in monocytes: 76%
  inhibition of IL-8 production in monocytes: 65%
  inhibition of TNFα production in monocytes: 99%
Mice [5]
  factor NOAEL over daily inhaled dose: 697.5 times
  NOAEL for a 62 kg adult human: 34,875 mg per day
